{"source": "patent US20030212138A1", "about": "“Combinations of peroxisome proliferator-activated receptor-alpha agonists and cyclooxygenase-2 selective inhibitors and therapeutic uses therefor” (Pharmacia Corporation, priority 2002, published 2003)", "origin": "cited, not measured here", "tested_on": "fibroblast growth factor-induced corneal angiogenesis", "settings": "rats; Masferrer et al. 1999"}
{"smiles": "Cc1ccc(-c2cc(C(F)(F)F)nn2-c2ccc(S(N)(=O)=O)cc2)cc1", "note": "[Celecoxib®, 4-[5-(4-methylphenyl)-3-(trifluoromethyl)-1H-pyrazol-1-yl]benzenesulfonamide]", "values": [{"measurement": "inhibition of fibroblast growth factor-induced corneal angiogenesis", "value": "potent inhibition"}]}
